Assays:
HUVEC cells = assay: HUVEC tube disruption assay; format: cell-based
Method: Aliquots of Matrigel basement membrane matrix (300 μl, BD Biosciences, Mississauga, Ontario, Canada) were added to each well of 24-well plates (Fisher Scientific Ltd, Nepean, Ontario, Canada) and allowed to incubate for 1 h at 37° C. HUVEC cells (3×10^4) were added per well in EGM-2 and incubated for 4 h at 37° C. in a 5% CO2 atmosphere to allow the cells to form tube-like structures. Compound 1R was diluted in DMSO to its respective concentrations, added to cells, and allowed to incubate for 1 h at 37° C. in a 5% CO2 atmosphere. Following the incubation, the medium was gently aspirated and fresh EGM-2 was added and cells were further incubated for 24 h. Miroscopy images were recorded with a Zeiss LSM 510 confocal microscope (Zeiss Canada Ltd, Toronto, Ontario, Canada). The effect of compound 1R on capillary tube disruption was evaluated by light microscopy (×40 magnification) and the results are summarized in Table III.

ZR-75-1 = assay: Caspase activation assay in ZR-75-1 cells; format: cell-based; conditions: Homo sapiens, ZR751 cells, 24 h incubation, read-out: Caspase activation potency EC50 ZR751
Method: Human breast cancer cell lines T-47D and ZR-75-1, human colon cancer cell line DLD-1 and human non-small cell lung cancer cell line H1299 were grown according to media component mixtures designated by American Type Culture Collection+10% FCS (Invitrogen Corporation), in a 5% CO2−95% humidity incubator at 37° C. T-47D and ZR-75-1 cells were maintained at a cell density between 30 and 80% confluency at a cell density of 0.1 to 0.6×10^6 cells/mL. Cells were harvested at 600×g and resuspended at 0.65×10^6 cells/mL into appropriate media+10% FCS. An aliquot of […] of cells was added to a well of a 96-well microtiter plate containing 5 μl of a 10% DMSO in RPMI-1640 media solution containing about 0.16 to 10 μM of 2,7,8-triamino-4-(3-bromo-4,5-dimethoxy-phenyl)-3-cyano-4H-chromene (1) or other test compounds (0.016 to 1 μM final). An aliquot of 45 μl of cells was added to a well of a 96-well microtiter plate containing 5 μl of a 10% DMSO in RPMI-1640 media solution without test compound as the control sample. The samples were mixed by agitation and then incubated at 37° C. for 24 h in a 5% CO2−95% humidity incubator. […] Using a fluorescent plate reader (Model 1420 Wallac Instruments), an initial reading (T=0) was made about 1-2 min after addition of the substrate solution, employing excitation at 485 nm and emission at 530 nm, to determine the background fluorescence of the control sample. After the 3 h incubation, the samples were read for fluorescence as above (T=3 h).
The Relative Fluorescence Unit values (RFU) were used to calculate the sample readings as follows: RFU(T=3h)−Control RFU(T=0)=Net RFU(T=3h)
The activity of caspase cascade activation was determined by the ratio of the net RFU value for 2,7,8-triamino-4-(3-bromo-4,5-dimethoxy-phenyl)-3-cyano-4H-chromene or other test compound to that of control samples. The EC50 (nM) was determined by a sigmoidal dose-response calculation (Prism 2.0, GraphPad Software Inc.).

COc1cc([C@H]2C(C#N)=C(N)Oc3c2ccc(N)c3N)cc(Br)c1OC [Compound 1R, R(−)-2,7,8-triamino-4-(3-bromo-4,5-dimethoxy-phenyl)-3-cyano-4H-chromene]
Tube formation % inhibition (HUVEC cells; 3.3 nM): No inhibition | Lowest concentration that inhibited tube formation (HUVEC cells; HUVEC tubes): 10 nM | inhibition at 0.01 µM (HUVEC cells; Homo sapiens, HUVEC, 10 nM, read-out: Tube formation % inhibition): 75% | inhibition at 0.03 µM (HUVEC cells; Homo sapiens, HUVEC, 30 nM, read-out: Tube formation % inhibition): 100% | inhibition at 0.1 µM (HUVEC cells; Homo sapiens, HUVEC, 100 nM, read-out: Tube formation % inhibition): 100% | EC50 (ZR-75-1): 19 nM

Source: US7968595B2, “Substituted 4-aryl-chromene as activator of caspases and inducer of apoptosis and as antivascular agent and the use thereof” (Cytovia, Inc., priority 2006, dated 2011)
